Reference: US20060079453A1, “Hla binding peptides and their uses” (priority 2002, published 2006)
“And” between values parts separate entries of the source, which are not always exact repeats. Equal entries are not always repeated. Where two headings read alike, the source gives them in different places. No end group written: not given here.

Experiments:
Assay in all cases: biochemical
[1] = biological target: HLA-DQ DQA1*0301/B*0301 (DQ7) (Homo sapiens, UniProt P01909+P01920, A209T/C70Q/DUP78-78/E183D/F237L/G63E/I129T/K197E/L178F/L74F/L98V/Q57E/Q76R/S185I/S97I/T49S/V73L); type: binding
[2] = biological target: HLA-B*0702 (Homo sapiens, UniProt P01889); type: binding; conditions: B*0702 binding affinity (IC50)
[3] = biological target: H-2Dd (Mus musculus, UniProt P01900); type: binding, murine
H-2Dd, sequence (P01900 25-365): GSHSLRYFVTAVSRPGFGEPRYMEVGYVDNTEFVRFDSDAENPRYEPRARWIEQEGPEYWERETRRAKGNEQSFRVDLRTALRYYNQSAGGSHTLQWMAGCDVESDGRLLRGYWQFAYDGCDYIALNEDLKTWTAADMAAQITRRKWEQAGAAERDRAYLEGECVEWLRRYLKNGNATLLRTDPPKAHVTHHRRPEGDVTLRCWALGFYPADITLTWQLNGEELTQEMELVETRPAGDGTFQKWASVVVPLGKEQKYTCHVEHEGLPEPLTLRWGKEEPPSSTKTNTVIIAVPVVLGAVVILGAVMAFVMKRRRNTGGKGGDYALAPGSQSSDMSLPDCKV
H-2Dd, sequence (P61769 21-119, further chain): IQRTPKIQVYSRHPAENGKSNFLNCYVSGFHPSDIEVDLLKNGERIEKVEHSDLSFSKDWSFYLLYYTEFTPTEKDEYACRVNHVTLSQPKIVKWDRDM

[4] = biological target: H-2 Db (Mus musculus, UniProt P01899); type: binding, murine
H-2 Db, sequence (P61769 21-119): as the sequence (P61769 21-119, further chain) above
H-2 Db, sequence (P01899 25-362): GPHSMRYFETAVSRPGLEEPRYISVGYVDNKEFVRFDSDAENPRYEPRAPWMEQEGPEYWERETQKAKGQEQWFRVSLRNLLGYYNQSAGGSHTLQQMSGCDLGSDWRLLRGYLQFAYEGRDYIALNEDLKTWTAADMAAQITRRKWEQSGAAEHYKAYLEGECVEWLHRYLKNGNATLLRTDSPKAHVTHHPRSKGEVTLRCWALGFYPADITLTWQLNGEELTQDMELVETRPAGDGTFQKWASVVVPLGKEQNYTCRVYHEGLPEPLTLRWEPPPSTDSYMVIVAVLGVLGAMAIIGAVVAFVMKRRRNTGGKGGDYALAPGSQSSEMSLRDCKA

[5] = biological target: HLA-DR DRB1*0701 (DR7) (Homo sapiens, UniProt P01903+P01911, A100R/A102G/A103Q/D57E/D86V/E43K/F76Y/K127E/L162R/M171V/P40G/Q125H/Q99D/R33Q/R42Y/R54Q/S133A/S66F/T210M/V115G/Y107V/Y59L/Y89S); type: binding; conditions: read-out: DRB1 *0701
[6] = biological target: HLA-DR DRB1*1101 (DR11) (Homo sapiens, UniProt P01903+P01911, A100R/A169T/A87E/I96F/K41T/L162R/M171V/P40S/Q125H/Q178H/Q39Y/Q99D/R42S/S66Y/T262R/V115G/W38E); type: binding; conditions: read-out: DRB1 *1101
HLA-DR DRB1*1101 (DR11), sequence (P01903 26-254 limits assumed, other chains not shown): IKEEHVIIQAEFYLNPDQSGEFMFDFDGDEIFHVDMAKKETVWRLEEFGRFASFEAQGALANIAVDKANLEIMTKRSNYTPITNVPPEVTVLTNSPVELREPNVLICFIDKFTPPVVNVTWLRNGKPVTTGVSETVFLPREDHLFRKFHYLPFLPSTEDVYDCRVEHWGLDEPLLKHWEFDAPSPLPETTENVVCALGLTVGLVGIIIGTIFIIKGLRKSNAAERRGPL

[7] = biological target: HLA-DR DRB1*1501 (DR15) (Homo sapiens, UniProt P01903+P01911); type: binding; conditions: read-out: DRBI *1501
[8] = biological target: HLA-DR DRB3*0101 (DR52) (Homo sapiens, UniProt P01903+P79483); type: binding; conditions: read-out: DRB3 *0101
[9] = biological target: HLA-DR DRB4*0101 (DR53) (Homo sapiens, UniProt P01903+P13762, G164S); type: binding; conditions: read-out: DRB4 *0101
[10] = biological target: HLA-DR DRB5*0101 (DR51) (Homo sapiens, UniProt P01903+Q30154); type: binding; conditions: read-out: DRB5 *0101

SDSNYYDLLKDLEEG
IC50 ([1]; read-out: DQB1*0301): > 89.3 µM

DDVWLGGLAEKFLPY
IC50 ([1]; read-out: DQB1*0301): 0.241 µM

RPRFGPGPGEF
IC50 [2]: 0.014 µM

RPRFRGPGPGF
IC50 [2]: 0.0097 µM

APAAGPGPGPA
IC50 [2]: 0.173 µM

RGPYRAYVTI
IC50 [3]: 0.0021 µM

RGPYRAFVTK
IC50 [3]: 0.091 µM

RGPFRAFVTI
IC50 [3]: 0.00078 µM

RGPYKAFVTI
IC50 [3]: 0.013 µM

CC(C)C[C@H](NC(=O)CNC(=O)[C@H](CCC(N)=O)NC(=O)[C@H](Cc1ccc(O)cc1)NC(=O)[C@@H](NC(=O)[C@H](Cc1ccc(O)cc1)NC(=O)CNC(=O)[C@@H](N)CCCNC(=N)N)C(C)C)C(=O)O
IC50 ([4]; Db): > 44 µM | IC50 [3]: > 37 µM

WGPSLYSI
IC50 [3]: 0.017 µM

APGPGPGLL
IC50 [2]: 0.299 µM

RGPYRAFKTI
IC50 [3]: 0.0023 µM

GGAYRLIVF
IC50 [3]: 0.0035 µM

RGPYRAFATI
IC50 [3]: 0.0021 µM

APRGPGPGL
IC50 [2]: 0.0049 µM

CC[C@H](C)[C@H](N)C(=O)N[C@H](C(=O)N[C@@H](Cc1ccc(O)cc1)C(=O)N[C@@H](CCCCN)C(=O)N[C@@H](CC(N)=O)C(=O)N[C@@H](CO)C(=O)N[C@H](C(=O)N[C@@H](Cc1c[nH]c2ccccc12)C(=O)N[C@H](C(=O)O)C(C)C)[C@@H](C)O)[C@@H](C)O
IC50 ([4]; Db): 0.409 µM and 0.276 µM

CC[C@H](C)[C@H](NC(=O)[C@H](CCC(=O)O)NC(=O)[C@@H]1CCCN1C(=O)[C@@H]1CCCN1C(=O)[C@@H](NC(=O)[C@H](CC(N)=O)NC(=O)[C@H](CO)NC(=O)[C@@H]1CCCN1C(=O)CNC(=O)[C@@H](N)CO)[C@@H](C)O)C(=O)O
IC50 ([4]; Db): 0.0081 µM

AAAANAAAM
IC50 ([4]; Db): 0.023 µM

APRTGPGPGL
IC50 [2]: 0.015 µM

RGPYRAFVAI
IC50 [3]: 0.0013 µM

CLKDRRNFDIIPEEIK
IC50 ([1]; read-out: DQB1*0301): 19.4 µM

IDVWLGGLDENFLPY
IC50 [1]: > 19.2 µM

CSCC[C@H](NC(=O)[C@H](C)NC(=O)[C@H](C)NC(=O)[C@H](C)NC(=O)[C@H](C)NC(=O)[C@H](Cc1ccc(O)cc1)NC(=O)[C@H](C)NC(=O)[C@H](C)NC(=O)[C@H](C)NC(=O)[C@H](C)N)C(=O)O
IC50 ([4]; Db): > 44 µM

STGWNRTIVENLLAN
IC50 ([1]; read-out: DQB1*0301): 47.1 µM

APAGPGPGAPA
IC50 [2]: 0.161 µM

AGPYRAFVTI
IC50 [3]: 0.005 µM

IDWDLGGLAENFLPY
IC50 ([1]; read-out: DQB1*0301): 0.218 µM

APGPGPGTAL [APGPGPGTAL]
IC50 [2]: 0.081 µM

TALANTIEV
IC50 ([4]; read-out: Db): 0.016 µM

YAAFAAAKTAAAFA
IC50 [5]: 0.034 µM | IC50 [6]: 0.0026 µM | IC50 [7]: > 4.35 µM | IC50 [8]: 33.3 µM | IC50 [9]: 0.03 µM | IC50 [10]: 0.0095 µM | IC50 ([1]; read-out: DQB1*0301): 0.036 µM and 0.039 µM

SGVENPGGYCM
IC50 ([4]; Db): 0.128 µM

GSDLVEALYLVCGER
IC50 [1]: > 89.3 µM

FSPRRNGYL
IC50 [3]: 0.0027 µM

RGPYRKFVTI
IC50 [3]: 0.0036 µM

KGPYRAFVTI
IC50 [3]: 0.0058 µM
